Results taken from patent US20260083708A1, “IL-17 MODULATORS AND USES THEREOF” (NNOCARE PHARMA INC., priority 2024, published 2026).

Key:
[1] = system: IL-17AF-induced IL-17 signaling pathway; assay: Inhibition of IL-17AF-induced IL-17 signaling pathway; type: cell-based; details: Homo sapiens; IL-17AF used instead of IL-17AA; read-out: IC50 for Inhibiting IL-AF Signaling
Description: (§1) Interleukin-17 (IL-17) reporter cell line (HEK-Blue IL-17, InvivoGen, Catalog Number hkb-i117) is created by genetically engineering human IL-17RA/IL-17RC heterodimeric receptor and downstream adapter protein ACT1 into human embryonic kidney 293 cells (HEK293). These cells also express secreted embryonic alkaline phosphatase (SEAP) reporter gene induced by NF-κB and AP-1. Therefore, IL-17AA can activate NF-κB and AP-1 signaling pathways inside the cells by binding to IL-17RA/RC on cell membrane, leading to expression of SEAP protein. After a colorimetric reaction between SEAP protein and Quanti-Blue solution, the absorbance at 620 nm is measured using a microplate reader (BioTek H1M, Agilent, Catalog Number SH1M-SN) to determine IL-17AA-activated signaling pathway.
(§2) In the experiment, HEK-Blue IL-17 cells were cultured at 37° C. under 5% CO2 conditions using the recommended medium from InvivoGen's instruction. Compounds were serially diluted starting from 10 μM. 4 μL of each compound solution was added to 32 μL of cells (10,000 cells) at 37° C. for 1 hour. After pre-incubation, 4 μL of IL-17AA with a final concentration of 2.5 ng/mL (Sino Biological, Catalog Number 12047-HNAS) was added to the cells, and incubation was continued for additional 20 hours. After incubation, 5 μL of cell culture supernatant was added to 45 μL of Quanti-Blue for the colorimetric reaction. The group without tested compound had the highest absorbance at 620 nm, and the group without IL-17AA had the lowest absorbance at 620 nm.
(§3) Therefore, the percentage of inhibition of tested compound was calculated as
(§4) Experimental results were analyzed using XLfit (IDBS) for 4-parameter nonlinear fitting analysis to provide the IC50 value for each tested compound (Table 1).
Example 44. Inhibition of IL-17AF-Induced IL-17 Signaling Pathway
The same experimental procedure to Example […] was followed where IL-17AF was used instead of IL-17AA.

[2] = molecular target: T1, IL-17AA and IL-17RA (Homo sapiens, UniProt Q16552); assay: Competitive inhibition of human IL-17AA and IL-17RA binding (HTRF); details: recombinant IL-17AA (His-tag) and IL-17RA (hFc-tag); read-out: IC50 for Inhibiting IL-AA/IL-RA Binding
T1 construct: purchased Sino Biological 12047-H07B (IL-17AA); 10895-H02H (IL-17RA)
T1 sequence (Q16552 24-155): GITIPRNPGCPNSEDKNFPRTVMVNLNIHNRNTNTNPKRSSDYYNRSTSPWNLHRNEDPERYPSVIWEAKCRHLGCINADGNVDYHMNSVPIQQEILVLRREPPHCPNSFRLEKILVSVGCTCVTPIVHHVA
Description: Example 42. Competitive Inhibition of Human IL-17AA and IL-17RA Binding
Recombinant IL-17AA (His-tag, Catalog Number 12047-H07B) and IL-17RA (hFc-tag, Catalog Number 10895-H02H) were purchased from Sino Biological. In the experiment, 10 μL of IL-17AA (1 nM) or IL-17RA (1 nM) was added to 10 μL of anti-6His-Tb (0.4 nM, Revvity, Catalog Number 61HISTLF) or anti-human IgG-d2 (1 μg/mL, anti-human IgG-d2, Revvity, Catalog Number 61HFCDAF), respectively and incubated at room temperature for 1 hour. Compounds were serially diluted starting from 10 μM. 5 μL of each compound solution was incubated with 5 μL of a mixture of IL-17AA and anti-6His-Tb at room temperature for 2 hours. After pre-incubation, to which was added 10 μL of a mixture of IL-17RA and anti-human IgG-d2, and incubation was continued for additional 20 minutes. Subsequently, a microplate reader (Envision, PerkinElmer) was used to detect fluorescence intensity at 615 nm and 665 nm, and the ratio of intensity thereof indicates the degree of IL-17AA and IL-17RA interaction. The ratio of intensity in the absence of tested compound was the highest value of binding between IL-17AA and IL-17RA, and the ratio of intensity in the absence of IL-17AA was the lowest value.
as §3
Experimental results were analyzed using XLfit (IDBS) for 4-parameter nonlinear fitting analysis, to provide the IC50 value for each tested compound (Table 1).

[3] = system: IL-17AA-induced IL-17 signaling pathway; assay: Inhibition of IL-17AA-induced IL-17 signaling pathway in HEK-Blue IL-17 reporter cells (SEAP); type: cell-based; details: Homo sapiens; HEK-Blue IL-17 cells, IL-17AA 2.5 ng/mL, 20 hours; read-out: IC50 for Inhibiting IL-AA Signaling
Description: Example 43. Inhibition of IL-17AA-Induced IL-17 Signaling Pathway
as §1, §2, §3, §4

Row | Structure (SMILES) | IC50 [1] [nM] | IC50 [2] [nM] | IC50 [3] [nM]
1 | Cc1nonc1C(=O)N[C@H](C(=O)Nc1ccc([C@H](C)[C@@H](NC(=O)CC#N)c2ncnn2CC2CC2)cc1F)C(C1CC1)C1CC1 [Compound 70, N-((S)-1-((4-((1R,2S)-1-(2-cyanoacetamido)-1-(1-(cyclopropylmethyl)-1H-1,2,4-triazol-5-yl)propan-2-yl)-2-fluorophenyl)amino)-3,3-dicyclopropyl-1-oxopropan-2-yl)-4-methyl-1,2,5-oxadiazole-3-carboxamide] | 7.3 | 3.4 | 7.5
2 | COCC(=O)N[C@@H](c1nncn1CC1CC1)[C@@H](C)c1ccc(NC(=O)[C@@H](NC(=O)COc2cc(C(F)F)ccn2)C(C2CC2)C2CC2)c(F)c1 [Compound 13, (S)-3,3-dicyclopropyl-N-(4-((1R,2S)-1-(4-(cyclopropylmethyl)-4H-1,2,4-triazol-3-yl)-1-(2-methoxyacetamido)propan-2-yl)-2-fluorophenyl)-2-(2-((4-(difluoromethyl)pyridin-2-yl)oxy)acetamido)propanamide] | 216 | 40 | 67
3 | Cc1nonc1C(=O)N[C@H](C(=O)Nc1ccc([C@H](C)[C@@H](NC(=O)COC2CN(C)C2)c2ncnn2CC2CC2)cc1F)C(C1CC1)C1CC1 [Compound 56, N-((S)-1,1-dicyclopropyl-3-((4-((1R,2S)-1-(1-(cyclopropylmethyl)-1H-1,2,4-triazol-5-yl)-1-(2-((1-methylazetidin-3-yl)oxy)acetamido)propan-2-yl)-2-fluorophenyl)amino)-3-oxopropan-2-yl)-4-methyl-1,2,5-oxadiazole-3-carboxamide] | 145 | 13 | 78
4 | CCn1ncnc1C(=O)N[C@H](C(=O)Nc1ccc([C@H](C)[C@@H](NC(=O)COC)c2ncnn2CC2CC2)cc1F)C(C1CC1)C1CC1 [Compound 50, N-((S)-1,1-dicyclopropyl-3-((4-((1R,2S)-1-(1-(cyclopropylmethyl)-1H-1,2,4-triazol-5-yl)-1-(2-methoxyacetamido)propan-2-yl)-2-fluorophenyl)amino)-3-oxopropan-2-yl)-1-ethyl-1H-1,2,4-triazole-5-carboxamide] | 26 | 5.6 | 7.9
5 | CCn1nccc1C(=O)N[C@H](C(=O)Nc1ccc([C@H](C)[C@@H](NC(=O)COC)c2ncccc2CC2CC2)cc1F)C(C1CC1)C1CC1 [Compound 28, N-((S)-1,1-dicyclopropyl-3-((4-((1R,2S)-1-(3-(cyclopropylmethyl)pyridin-2-yl)-1-(2-methoxyacetamido)propan-2-yl)-2-fluorophenyl)amino)-3-oxopropan-2-yl)-1-ethyl-1H-pyrazole-5-carboxamide] | 24 | 7.8 | 8.4
6 | CCn1nccc1C(=O)N[C@H](C(=O)Nc1ccc([C@H](C)[C@@H](NC(=O)CO)c2ncnn2CC2CC2)cc1F)C(C1CC1)C1CC1 [Compound 49, N-((S)-1,1-dicyclopropyl-3-((4-((1R,2S)-1-(1-(cyclopropylmethyl)-1H-1,2,4-triazol-5-yl)-1-(2-hydroxyacetamido)propan-2-yl)-2-fluorophenyl)amino)-3-oxopropan-2-yl)-1-ethyl-1H-pyrazole-5-carboxamide] | 87 | 28 | 93
7 | COCC(=O)N[C@@H](c1nncn1CC1CC1)[C@@H](C)c1ccc(NC(=O)[C@@H](NC(=O)COc2cc(C(F)F)on2)C(C2CC2)C2CC2)c(F)c1 [Compound 8] | 73 | 13 | 35

Second part, the compound after the results:

Row | IC50 [1] [nM] | IC50 [2] [nM] | IC50 [3] [nM] | Structure (SMILES)
8 | 8.5 | 1 | 1.9 | CCC(=O)N[C@@H](c1ncnn1CC1CC1)[C@@H](C)c1ccc(NC(=O)[C@@H](NC(=O)c2ccnn2CC)C(C2CC2)C2CC2)c(F)c1 [Compound 72, N-((S)-1,1-dicyclopropyl-3-((4-((1R,2S)-1-(1-(cyclopropylmethyl)-1H-1,2,4-triazol-5-yl)-1-propionamidopropan-2-yl)-2-fluorophenyl)amino)-3-oxopropan-2-yl)-1-ethyl-1H-pyrazole-5-carboxamide]
9 | 25 | 7.3 | 4.1 | CCn1nccc1C(=O)N[C@H](C(=O)Nc1ccc([C@H](C)[C@@H](NC(=O)COC)c2nncn2CC2CC2)cc1F)C(C1CC1)C1CC1 [Compound 3, N-((S)-1,1-dicyclopropyl-3-((4-((1R,2S)-1-(4-(cyclopropylmethyl)-4H-1,2,4-triazol-3-yl)-1-(2-methoxyacetamido)propan-2-yl)-2-fluorophenyl)amino)-3-oxopropan-2-yl)-1-ethyl-1H-pyrazole-5-carboxamide]
10 | 133 | 16 | 31 | CCn1nccc1C(=O)N[C@H](C(=O)Nc1ccc([C@H](C)[C@@H](NC(=O)COC)c2nncn2CC2CCOCC2)cc1F)C(C1CC1)C1CC1 [Compound 9, N-((S)-1,1-dicyclopropyl-3-((2-fluoro-4-((1R,2S)-1-(2-methoxyacetamido)-1-(4-((tetrahydro-2H-pyran-4-yl)methyl)-4H-1,2,4-triazol-3-yl)propan-2-yl)phenyl)amino)-3-oxopropan-2-yl)-1-ethyl-1H-pyrazole-5-carboxamide]
11 | 6.4 | 4.5 | 5.6 | [2H]C([2H])([2H])OCC(=O)N[C@@H](c1ncnn1CC1CC1)[C@@H](C)c1ccc(NC(=O)[C@@H](NC(=O)c2ccnn2CC)C(C2CC2)C2CC2)c(F)c1 [Compound 68, N-((S)-1,1-dicyclopropyl-3-((4-((1R,2S)-1-(1-(cyclopropylmethyl)-1H-1,2,4-triazol-5-yl)-1-(2-(methoxy-d3)acetamido)propan-2-yl)-2-fluorophenyl)amino)-3-oxopropan-2-yl)-1-ethyl-1H-pyrazole-5-carboxamide]
12 | 46 | 13 | 28 | CC(=O)N[C@@H](c1nncn1CC1CC1)[C@@H](C)c1ccc(NC(=O)[C@@H](NC(=O)c2ccnn2C(C)C)C(C2CC2)C2CC2)c(F)c1 [Compound 22, N-((S)-1-((4-((1R,2S)-1-acetamido-1-(4-(cyclopropylmethyl)-4H-1,2,4-triazol-3-yl)propan-2-yl)-2-fluorophenyl)amino)-3,3-dicyclopropyl-1-oxopropan-2-yl)-1-isopropyl-1H-pyrazole-5-carboxamide]
13 | 50 | 20 | 14 | CCn1nccc1C(=O)N[C@H](C(=O)Nc1ccc([C@H](C)[C@@H](NC(=O)COC)c2ncn(CC3CC3)n2)cc1F)C(C1CC1)C1CC1 [Compound 20, N-((S)-1,1-dicyclopropyl-3-((4-((1R,2S)-1-(1-(cyclopropylmethyl)-1H-1,2,4-triazol-3-yl)-1-(2-methoxyacetamido)propan-2-yl)-2-fluorophenyl)amino)-3-oxopropan-2-yl)-1-ethyl-1H-pyrazole-5-carboxamide]
